According to patent US20240398813A1, “PHARMACEUTICAL COMPOSITION FOR PREVENTING OR TREATING OVERACTIVE BLADDER” (GWANGJU INSTITUTE OF SCIENCE AND TECHNOLOGY, priority 2021, published 2024):
pEC50: −log10 of the molar value.

Target: T1, hyperactive mutant BKCa channels (hSlo G803D/N806K) stably expressed in AD 293 cells (Homo sapiens, UniProt Q12791, G856D/N859K)
T1 construct: expressed in transfected cells
Experiment: Cell-based fluorescence assay (FluxOR Potassium Ion Channel Assay) of BKCa channel activation
Design: key to Channel activity increase for 80 s (ΔRFU) at 6 μM: ratio of ΔRFU (RFU at 100 s − 20 s) to the same ΔRFU for vehicle
In short: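 AD 293 cells stably expressing hSlo G803D/N806K were exposed to compound in assay buffer for 15 min, then read by FluxOR thallium-flux fluorescence (ex 485/em 528 nm) every 2 s for 120 s. Initial rate vi from 20–24 s; ΔRFU from 20–100 s, normalised to vehicle and measured at 6 μM; apparent EC50 from dose-response fit.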

T1 sequence (Q12791 whole entry G856D/N859K): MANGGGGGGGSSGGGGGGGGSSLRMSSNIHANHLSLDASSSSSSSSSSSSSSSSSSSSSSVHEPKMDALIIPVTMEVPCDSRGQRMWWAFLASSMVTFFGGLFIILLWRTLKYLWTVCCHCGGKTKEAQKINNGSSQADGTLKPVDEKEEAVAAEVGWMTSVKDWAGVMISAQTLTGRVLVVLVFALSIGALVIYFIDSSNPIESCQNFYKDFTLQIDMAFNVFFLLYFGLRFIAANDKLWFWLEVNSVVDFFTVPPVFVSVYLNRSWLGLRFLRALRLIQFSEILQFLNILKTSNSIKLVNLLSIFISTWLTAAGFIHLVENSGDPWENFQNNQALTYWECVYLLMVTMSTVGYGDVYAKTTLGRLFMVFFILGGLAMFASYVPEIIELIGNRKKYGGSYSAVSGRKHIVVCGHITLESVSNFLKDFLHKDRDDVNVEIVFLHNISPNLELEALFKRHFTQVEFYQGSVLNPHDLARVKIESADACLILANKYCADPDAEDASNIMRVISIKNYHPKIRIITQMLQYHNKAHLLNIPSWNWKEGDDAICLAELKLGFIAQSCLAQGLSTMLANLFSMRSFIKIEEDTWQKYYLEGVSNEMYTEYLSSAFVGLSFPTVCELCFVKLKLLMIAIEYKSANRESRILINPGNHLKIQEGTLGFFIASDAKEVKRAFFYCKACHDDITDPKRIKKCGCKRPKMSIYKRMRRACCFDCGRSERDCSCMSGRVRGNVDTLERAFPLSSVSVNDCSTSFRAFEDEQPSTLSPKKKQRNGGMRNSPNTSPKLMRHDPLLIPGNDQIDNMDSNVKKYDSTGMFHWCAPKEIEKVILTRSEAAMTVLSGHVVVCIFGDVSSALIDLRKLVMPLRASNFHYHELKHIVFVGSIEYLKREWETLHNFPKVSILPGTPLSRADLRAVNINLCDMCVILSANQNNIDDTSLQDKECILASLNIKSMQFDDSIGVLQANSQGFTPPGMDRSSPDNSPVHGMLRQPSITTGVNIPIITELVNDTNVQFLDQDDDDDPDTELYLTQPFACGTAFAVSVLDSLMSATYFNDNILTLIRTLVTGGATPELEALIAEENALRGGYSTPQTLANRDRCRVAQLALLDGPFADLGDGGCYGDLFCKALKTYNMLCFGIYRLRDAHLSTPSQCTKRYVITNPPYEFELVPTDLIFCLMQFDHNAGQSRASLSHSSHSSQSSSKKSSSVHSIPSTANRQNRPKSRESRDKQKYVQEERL

In the case of `Cc1cccc(NC(=O)c2sc(=S)n3c2[nH]c(=O)c2cc(Br)ccc23)c1` [TTQC-1, 7-bromo-5-oxo-1-thioxo-N-(m-tolyl)-4,5-dihydro-1H-thiazolo[3,4-a]quinazoline-3-carboxamide], the “increase in fluorescence induced by TTQC-1 in the presence of BKCa channel inhibitors” value (2 μM TTQC-1, 1 μM paxillin and 0.1 μM iberiotoxin) was “removed”, the “activation effect on the BKCa channel relative to LDD175” value (3 μM) was 1.6 times and the “activation effect on the BKCa channels at a single concentration” value (3 μM) was “most potent effect”. For the same molecule, the “effect (ΔRFU) relative to vehicle” value (6 μM) was 4.98±0.05 times, the “Initial velocity of channel activation for 4 s (vi) at 6 μM” value (6 μM, first 4 s after channel stimulation) was 9.77 s⁻¹ and the “Channel activity increase for 80 s (ΔRFU) at 6 μM” value (6 μM, normalized by vehicle) was 4.98. For the same molecule, the “concentration at which the Tl+ flux effect was saturated” value (0.6-10 μM tested) was 6 µM, the “TTQC-1 activation effect in the presence of 0.1 μM iberiotoxin” value (TTQC-1 at concentrations above 4 μM) was “activated the BKCa channels” and the “TTQC-1 activation effect in the presence of 0.1 μM iberiotoxin” value (TTQC-1 at concentrations below 2 μM) was “eliminated”. For the same molecule, the pEC50 (fit of dose-response curve of initial rates, read-out: Apparent EC50 based on vi) was 5.24.
